Source: PMC7747594, “Protease-activated receptor-2 ligands reveal orthosteric and allosteric mechanisms of receptor inhibition” (Communications Biology, 2020)
Values joined by “and” are separate entries in the source; they are usually repeats but may differ in a detail not shown here. Identical values can stand only once.

How the values were obtained:
[1] = target: T1, hPAR2 (Homo sapiens, UniProt P55085); experiment: Ca^2+ flux assay, inhibition of tryptase activation in 1321N1-hPAR2 cells; format: cell-based; conditions: 1 µM Vorapaxar
T1 sequence (P55085 26-397): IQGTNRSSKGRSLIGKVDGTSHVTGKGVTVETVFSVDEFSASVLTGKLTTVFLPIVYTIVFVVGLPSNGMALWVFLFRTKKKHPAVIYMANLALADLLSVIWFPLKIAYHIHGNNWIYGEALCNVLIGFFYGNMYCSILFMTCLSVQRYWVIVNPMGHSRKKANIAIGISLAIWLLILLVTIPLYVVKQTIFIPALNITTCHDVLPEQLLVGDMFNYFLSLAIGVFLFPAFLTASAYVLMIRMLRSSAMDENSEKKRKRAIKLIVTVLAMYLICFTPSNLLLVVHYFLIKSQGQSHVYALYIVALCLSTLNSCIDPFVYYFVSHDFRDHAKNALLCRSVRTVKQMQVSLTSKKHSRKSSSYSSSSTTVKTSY
Procedure: For evaluation of Ca^2+ mobilisation, 1321N1-hPAR2 cells were seeded in 384-well CellBIND plates (Corning) at 4000 cells per well in DMEM containing 10% FBS and incubated for 18–24 hours at 37 °C, 5% CO2 and 95% humidity. Cells were loaded with Fluo-8 NW calcium dye (AAT Bioquest) for 30 min at 37 °C before compounds in Hank’s balanced salt solution (HBSS, ThermoFisher Scientific) with 20 mM HEPES (ThermoFisher Scientific), 0.1% bovine serum albumin (BSA, Sigma) and 0.5% DMSO were added and simultaneously evaluated for changes in intracellular [Ca^2+] using FLIPR TETRA (Molecular Devices) to detect agonism. For each concentration, the difference between the maximum peak Ca^2+ response and baseline response is reported. […] Inhibition of Ca^2+ release on rat PAR2 was measured in the same way using 10 000 KNRK cells per well seeded in poly-D-lysine coated 384-well plates (Greiner), 30 min preincubation with the compound before activation of PAR2 with EC80 of SLIGRL-NH2 (120 µM) and real-time detection of Ca^2+. […] Intracellular [Ca^2+] flux was measured using FLIPR TETRA (Molecular Devices) and the difference between the maximum peak Ca^2+ response and baseline response is reported.

[2] = target: T2, beta-tryptase (uniprot P20231) (Homo sapiens, UniProt P20231); experiment: Tryptase enzyme activity assay; format: biochemical; conditions: 10 µM, n=1
T2 construct: made in house; host or cells: Pichia pastoris
T2 sequence (P20231 31-275): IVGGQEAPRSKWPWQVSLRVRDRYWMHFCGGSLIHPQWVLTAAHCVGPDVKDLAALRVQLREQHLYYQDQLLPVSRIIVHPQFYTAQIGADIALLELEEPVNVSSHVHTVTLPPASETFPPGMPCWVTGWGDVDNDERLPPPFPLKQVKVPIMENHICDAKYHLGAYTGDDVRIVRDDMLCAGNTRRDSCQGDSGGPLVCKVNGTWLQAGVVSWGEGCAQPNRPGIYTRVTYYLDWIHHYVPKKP
Procedure: Tryptase Enzyme Activity Assay. The tryptase assay was carried out using beta-tryptase (uniprot P20231) produced in Pichia pastoris and using Tos-Gly-Pro-Lys-pNA as substrate (25 mM stock in ethanol) in 100 mM Tris pH 8.0, 100 mM NaCl, 10% glycerol, 0.5 mg mL-1 BSA, 0.1% DDM. Substrate (250 µM) was pre-incubated with test compound (10 µM) in assay buffer (200 ul) in clear bottom 96 well Greiner plates at room temperature. The re action was started by the addition of tryptase to a final concentration of 4.7 nM. Co nversion was recorded in a plate reader by monitoring the increase of absorption at λ = 405 nm over time. Activity was determined by linear fit of initial rate.

[3] = test system: mast cells; experiment: Immunohistochemistry, tryptase-positive (AA1+ve) intact mast cells in rat paw; format: in vivo; conditions: for AA +ve cells (% max): 2f-induced rat paw oedema, individual animals (Figure 5c); for decrease of tryptase-positive mast cells by 2f-LIGRLO-NH2: pre-treatment, 30 min
Procedure: Tissues were then embedded with Optimal Cutting Temperature compound (OCT, Sakura Finetek, USA) and stored at −80 °C before making cryo-sections for histological analysis. Frozen sections (5 µm) were made using a cryostat-microtome (Leica Biosystems, Germany). […] Slides were then dehydrated and mounted in DPX mountant (Sigma-Aldrich, USA). For immunohistochemistry, slides were briefly rinsed with PBS to remove OCT. Except for tryptase staining, antigen retrieval was performed by incubating slides in citrate buffer (0.01 M, pH 6) at 95 °C for 20 min. They were then cooled down briefly and incubated with blocking medium (PBS, 0.1% Triton X-100, 10% horse serum) for 1 h at room temperature in a humidity chamber. Samples were incubated with primary antibody medium (PBS, 0.1% Triton X-100, 4% horse serum; 1:100 primary antibody including – histamine, neutrophil elastase or ED1 antibodies) overnight at 4 °C. The next day, samples were washed with PBS and incubated with the secondary antibody medium (PBS, 0.1% Triton X-100, 4% horse serum, detection antibody 1:200) for 2 h at room temperature. For tryptase staining, slides were incubated with primary antibody medium (as above with tryptase antibody at 1:100 dilution) for 4 h, then the secondary antibody medium for 2 h. Finally, slides were dried, counterstained with DAPI (Invitrogen, Australia), and sealed with clear nail polish. Primary antibodies for tryptase (AA1, ab2378, Abcam, Australia), histamine (H7403, Sigma-Aldrich, USA), neutrophil elastase (ab21595, Abcam, Australia) and ED1 (ab31630, Abcam, Australia) were purchased from commercial sources. Secondary detection antibody was purchased from Abcam, Australia.

inhibition of tryptase-induced Ca^2+ response [1]	SMILES	inhibition of tryptase activity [2]	AA +ve cells (% max) [3]	decrease of tryptase-positive mast cells by 2f-LIGRLO-NH2 [3]
only partial inhibition at low	C[C@@H](C1CCCCC1)n1c(-c2cc3c(cc2Br)OCO3)nc2cc(C(=O)Nc3ccncc3)ccc21 [AZ2623]	–	–	–
only partial inhibition at low	C[C@@H](C1CCCCC1)n1c(-c2cc3c(cc2Br)OCO3)nc2cc(C(=O)Nc3ccc(C#N)cc3)ccc21 [AZ3451]	no	91.7692 % max and 45.8846 % max and 58.1835 % max and 66.6982 % max	partly blocked
–	CCCc1cc(F)ccc1C(O)c1ncc[nH]1 (centres unmarked) [AZ8838]	no	70.0073 % max and 71.1692 % max and 108.061 % max and 60.4212 % max and 59.2593 % max	partly blocked
